Reference: the supplement of paper PMC10307832

How the values were obtained:
Assay in all cases: relative viability (nuclei count vs DMSO), 5 days (fraction); higher = more cells survive
[1] = compound: CC(C)(C)c1nc(-c2cccc(NS(=O)(=O)c3c(F)cccc3F)c2F)c(-c2ccnc(N)n2)s1 [Dabrafenib] + COc1cc2c(Oc3ccc(NC(=O)C4(C(=O)Nc5ccc(F)cc5)CC4)cc3F)ccnc2cc1OCCCN1CCOCC1 [Foretinib] (partner 0.25 µM)
How it was run: (§1)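 A single step with final 0.05% Triton X-100, 1% formaldehyde and 1 ug/ml Hoechst fixed the cells and stained nuclei 5 days after treatment. Lung cancer cell lines in 1536-well plates had been treated by pin tool the day after seeding with one drug alone or a fixed anchor-drug dose plus five library-drug doses (not always all listed) in √10 steps, and nuclei were counted on 4× images. Relative viability is the ratio of nuclei in treated wells to nuclei in vehicle wells, taken as the median of duplicate plates.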

[2] = compound: CC(C)(C)c1nc(-c2cccc(NS(=O)(=O)c3c(F)cccc3F)c2F)c(-c2ccnc(N)n2)s1 [Dabrafenib] + CS(=O)(=O)CCNCc1ccc(-c2ccc3ncnc(Nc4ccc(OCc5cccc(F)c5)c(Cl)c4)c3c2)o1 [Lapatinib] (partner 2 µM)
How it was run: as §1

[3] = compound: NC(=O)c1ccc(N(C(N)=O)c2c(F)cccc2F)nc1-c1ccc(F)cc1F [VX-702] + COc1cccc2cc(-c3nc([C@H]4CC[C@H](C(=O)O)CC4)n4ncnc(N)c34)[nH]c12 [OSI-027] (partner 0.5 µM)
How it was run: as §1

[4] = compound: NC(=O)c1ccc(N(C(N)=O)c2c(F)cccc2F)nc1-c1ccc(F)cc1F [VX-702] + NC(=O)Nc1cc(-c2cccc(F)c2)sc1C(=O)N[C@H]1CCCNC1 [AZD7762] (partner 0.2 µM)
How it was run: as §1

| Cell Line | relative viability ([1]; first compound 0.003 µM) | relative viability ([1]; first compound 0.009487 µM) | relative viability ([1]; first compound 0.03 µM) | relative viability ([1]; first compound 0.09487 µM) | relative viability ([1]; first compound 0.3 µM) | relative viability ([2]; first compound 0.003 µM) | relative viability ([2]; first compound 0.009487 µM) | relative viability ([2]; first compound 0.03 µM) | relative viability ([2]; first compound 0.09487 µM) | relative viability ([2]; first compound 0.3 µM) | relative viability ([3]; first compound 0.02 µM) | relative viability ([3]; first compound 0.2 µM) | relative viability ([3]; first compound 0.6325 µM) | relative viability ([3]; first compound 2 µM) | relative viability ([4]; first compound 0.02 µM) | relative viability ([4]; first compound 0.2 µM) | relative viability ([4]; first compound 0.6325 µM) | relative viability ([4]; first compound 2 µM) |
| --- | --- | --- | --- | --- | --- | --- | --- | --- | --- | --- | --- | --- | --- | --- | --- | --- | --- | --- |
| NCI-H2170 | 1.03 | 0.539 | 0.961 | 1.01 | 1.11 | 0.263 | 0.265 | 0.268 | 0.291 | 0.311 | 0.746 | 0.693 | 0.698 | 0.762 | 1.05 | 0.834 | 1.08 | 0.941 |
| NCI-H2087 | – | 1.04 | 0.988 | 0.959 | 1.09 | 0.689 | 1.08 | 0.769 | 0.77 | 0.785 | 0.55 | 0.471 | 0.48 | 0.497 | 1.53 | 1.35 | 1.54 | 1.34 |
| NCI-H358 | 0.662 | 0.862 | 0.815 | 0.771 | 0.76 | – | 0.53 | 0.369 | 0.446 | 0.465 | 0.867 | 0.845 | 0.711 | 0.794 | 0.542 | 0.461 | 0.45 | 0.572 |
| NCI-H1975 | 0.965 | 0.907 | 0.922 | 0.849 | 0.957 | 0.914 | 0.858 | 0.881 | 0.84 | 0.786 | 0.753 | 0.756 | 0.829 | 0.779 | 0.663 | 0.741 | 0.763 | 0.815 |
| HCC-15 | 0.944 | 1.07 | 1.08 | 0.852 | 1.03 | 0.788 | 0.809 | 0.891 | 0.739 | 0.732 | 0.659 | 0.661 | 0.69 | 0.702 | 1.31 | 1.18 | 1.32 | 1.19 |
| HOP-62 | 1.12 | 1.1 | 1.16 | 0.969 | 1.12 | – | 1.07 | 0.822 | 0.889 | 0.784 | 0.88 | 0.859 | 0.831 | 0.982 | 0.95 | 0.409 | 1.08 | 0.465 |
| EMC-BAC-2 | 1.01 | 1.01 | 0.766 | 0.924 | 1.06 | 0.87 | 0.775 | 0.877 | 0.926 | 0.916 | 0.372 | 0.404 | 0.355 | 0.313 | 1.11 | 1.08 | 1.16 | 1.08 |
| NCI-H1355 | – | 0.981 | 0.935 | 0.809 | 0.947 | – | 1.11 | 1.03 | – | 1.19 | 0.419 | 0.427 | 0.371 | 0.405 | 0.867 | 0.672 | 0.83 | 0.813 |
| NCI-H3122 | 1.04 | 0.959 | 0.935 | 0.904 | 0.97 | 1.05 | 1.08 | 1.04 | 0.959 | 1.08 | 0.922 | 0.874 | 0.917 | 1.05 | 1.07 | 1.05 | 1.03 | 1.01 |
